In US20240239861A1, “GLUCAGON-RECEPTOR SELECTIVE POLYPEPTIDES AND METHODS OF USE THEREOF” (i2O Therapeutics, Inc., priority 2016, published 2024):
Read-outs that look alike come from different tables or passages of the source. *1 amine or outer side, *2 acyl side, *3 side chain or, on linkers, in order; H or OH if unused. Where a SMILES comes first, the peptide text is derived from it. Side-chain parts run from the residue outwards. [ ]: non-standard residue; d: D form. The star is where a group is joined. γGlu = O=C(O)[C@H](CCC(=O)[*:2])N[*:1]; Palmitoyl = CCCCCCCCCCCCCCCC(=O)*; Aib = CC(C)(N)C(=O)O

Columns and labels:
[1] = Stability in water or saline at 37° C. and room temperature, 30 days, LC/MS and HPLC purity; assay type: physicochemical
Text: Samples were withdrawn at a regular interval for 30 days and analyzed by LC/MS and HPLC for determination of purity and mass of the degradation product.

[2] = Solubility in water or saline at room temperature, visual inspection; assay type: physicochemical; conditions: Solubility in water mg/ml
Text: Samples were visually inspected for clarity of the sample, any appearance of turbidity or haziness.

[3] = molecular target: human GLP-1R (Homo sapiens, UniProt P43220); test: Peptide-receptor mediated cAMP accumulation (LANCE Ultra cAMP) in CHO-K1 cells transfected with human GLP-1R; assay type: cell-based
[4] = in vivo; conditions: male, rat
[5] = FIGURE 2A
[6] = molecular target: human GCGR (Homo sapiens, UniProt P47871); test: Peptide-receptor mediated cAMP accumulation (LANCE Ultra cAMP) in CHO-K1 cells transfected with human GCGR; assay type: cell-based; conditions: read-out: GluR pEC50 (converted)
[7] = Clearance following intravenous infusion, acylated peptides (1-hour infusion, 0.033 mg/kg); conditions: rat, in vivo
[8] = hGLP1 pEC50 (cAMP mean (n = 3): 11 point curve starting at 1 nM, Table 3)
[9] = hGLP1 pEC50 (cAMP) mean (n = 3): 11 point curve starting at 1 nM, Table 2B
[10] = Table 7, GLP-1R, read-out: GLP-1R pEC50 (converted)

Chain of human GCGR (P47871 26-477): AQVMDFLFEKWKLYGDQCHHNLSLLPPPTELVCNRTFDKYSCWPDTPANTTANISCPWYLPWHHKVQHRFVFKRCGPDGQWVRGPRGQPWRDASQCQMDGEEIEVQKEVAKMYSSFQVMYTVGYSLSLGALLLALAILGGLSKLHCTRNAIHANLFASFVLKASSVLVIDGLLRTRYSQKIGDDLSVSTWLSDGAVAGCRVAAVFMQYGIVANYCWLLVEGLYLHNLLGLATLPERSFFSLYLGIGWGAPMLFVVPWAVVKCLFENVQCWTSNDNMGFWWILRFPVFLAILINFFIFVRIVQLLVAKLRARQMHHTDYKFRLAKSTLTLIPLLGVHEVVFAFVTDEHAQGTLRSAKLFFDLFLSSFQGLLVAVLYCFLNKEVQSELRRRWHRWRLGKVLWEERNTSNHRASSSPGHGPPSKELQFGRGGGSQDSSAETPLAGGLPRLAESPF
Chain of human GLP-1R (P43220 24-463): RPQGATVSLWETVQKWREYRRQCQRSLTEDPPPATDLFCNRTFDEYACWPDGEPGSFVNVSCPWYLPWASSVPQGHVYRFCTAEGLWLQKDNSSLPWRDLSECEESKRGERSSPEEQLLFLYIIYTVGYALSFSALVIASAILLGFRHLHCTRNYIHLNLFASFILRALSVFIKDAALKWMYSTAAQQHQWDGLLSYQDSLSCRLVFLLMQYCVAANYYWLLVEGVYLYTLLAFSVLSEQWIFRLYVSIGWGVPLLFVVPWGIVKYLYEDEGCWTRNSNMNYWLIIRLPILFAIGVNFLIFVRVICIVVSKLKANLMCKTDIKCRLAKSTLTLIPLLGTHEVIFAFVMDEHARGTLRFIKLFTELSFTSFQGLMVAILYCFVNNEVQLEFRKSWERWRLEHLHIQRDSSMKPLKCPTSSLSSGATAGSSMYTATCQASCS

Structure (SMILES)	Stability 1 mg/ml in water at 37 degC [1] [%]	solubility [2] [mg/mL]	EC50 [3, 8] [nM]	EC50 [3, 9] [nM]	clearance [4] [mL/min/kg]	CL [5] [mL/min/kg]	EC50 [3, 10] [nM]	EC50 [6] [nM]	clearance [7] [mL/min/kg]	half-life [7] [min]
CC(C)C[C@H](NC(=O)[C@H](Cc1ccc(O)cc1)NC(=O)[C@H](CCCCN)NC(=O)[C@H](CO)NC(=O)[C@H](Cc1ccc(O)cc1)NC(=O)[C@H](CC(=O)O)NC(=O)[C@H](CO)NC(=O)[C@@H](NC(=O)[C@H](Cc1ccccc1)NC(=O)[C@@H](NC(=O)CNC(=O)[C@H](Cc1c[nH]cn1)NC(=O)[C@H](CO)NC(=O)[C@@H](N)Cc1ccc(O)cc1)[C@@H](C)O)[C@@H](C)O)C(=O)N[C@@H](CC(=O)O)C(=O)N[C@@H](C)C(=O)N[C@@H](C)C(=O)N[C@@H](CCCNC(=N)N)C(=O)N[C@@H](C)C(=O)N[C@@H](CCC(N)=O)C(=O)N[C@@H](CCC(=O)O)C(=O)N[C@@H](Cc1ccccc1)C(=O)N[C@H](C(=O)N[C@@H](CCCCN)C(=O)N[C@@H](Cc1c[nH]c2ccccc12)C(=O)N[C@@H](CC(C)C)C(=O)N[C@@H](CCC(=O)O)C(=O)N[C@@H](CC(=O)O)C(=O)N[C@@H](CCC(=O)O)C(=O)N1CCC[C@H]1C(=O)N[C@@H](CO)C(=O)N[C@@H](CO)C(=O)NCC(=O)N[C@@H](C)C(=O)N1CCC[C@H]1C(=O)N1CCC[C@H]1C(=O)N1CCC[C@H]1C(=O)N[C@@H](CO)C(=O)O)C(C)C [Compound A97] (H-YSHGTFTSDYSKYLDAARAQEFVKWLEDEPSSGAPPPS-OH; N-terminus assumed)	>59	> 200	> 1	> 1	18.9	–	–	–	–	–
CC(C)C[C@H](NC(=O)[C@H](Cc1c[nH]c2ccccc12)NC(=O)[C@H](CCCCN)NC(=O)[C@@H](NC(=O)[C@H](Cc1ccccc1)NC(=O)[C@H](CCC(=O)O)NC(=O)[C@H](CCC(N)=O)NC(=O)[C@H](C)NC(=O)[C@H](CCCNC(=N)N)NC(=O)[C@H](CCCCN)NC(=O)[C@H](CO)NC(=O)[C@H](CCC(=O)O)NC(=O)[C@H](CC(C)C)NC(=O)[C@H](CC(C)C)NC(=O)[C@H](CCCNC(=N)N)NC(=O)[C@@H](NC(=O)[C@H](Cc1ccc(O)cc1)NC(=O)[C@H](CC(=O)O)NC(=O)[C@H](CO)NC(=O)[C@@H](NC(=O)[C@H](Cc1ccccc1)NC(=O)[C@@H](NC(=O)CNC(=O)[C@H](Cc1c[nH]cn1)NC(=O)[C@H](CO)NC(=O)[C@@H](N)Cc1ccc(O)cc1)[C@@H](C)O)[C@@H](C)O)[C@@H](C)O)C(C)C)C(=O)N[C@@H](CCC(=O)O)C(=O)N[C@@H](CC(=O)O)C(=O)N[C@@H](CCC(=O)O)C(=O)N1CCC[C@H]1C(=O)N[C@@H](CO)C(=O)N[C@@H](CO)C(=O)NCC(=O)N[C@@H](C)C(=O)N1CCC[C@H]1C(=O)N1CCC[C@H]1C(=O)N1CCC[C@H]1C(=O)N[C@@H](CO)C(=O)O [Compound A98] (H-YSHGTFTSDYTRLLESKRAQEFVKWLEDEPSSGAPPPS-OH; N-terminus assumed)	>75	> 200	> 1	> 1	–	51.5 ± 13.4	–	–	–	–
CC(C)C[C@H](NC(=O)[C@H](Cc1ccc(O)cc1)NC(=O)[C@H](CCCCN)NC(=O)[C@H](CO)NC(=O)[C@H](Cc1ccc(O)cc1)NC(=O)[C@H](CC(=O)O)NC(=O)[C@H](CO)NC(=O)[C@@H](NC(=O)[C@H](Cc1ccccc1)NC(=O)[C@@H](NC(=O)CNC(=O)[C@H](Cc1c[nH]cn1)NC(=O)[C@H](CO)NC(=O)[C@@H](N)Cc1ccc(O)cc1)[C@@H](C)O)[C@@H](C)O)C(=O)N[C@@H](CC(=O)O)C(=O)NC(C)(C)C(=O)N[C@@H](CCCCN)C(=O)N[C@@H](CCCNC(=N)N)C(=O)N[C@@H](C)C(=O)N[C@@H](CCC(N)=O)C(=O)N[C@@H](CCC(=O)O)C(=O)N[C@@H](Cc1ccccc1)C(=O)N[C@H](C(=O)NC(C)(C)C(=O)N[C@@H](Cc1c[nH]c2ccccc12)C(=O)N[C@@H](CC(C)C)C(=O)N[C@@H](CCC(=O)O)C(=O)N[C@@H](CC(=O)O)C(=O)N[C@@H](CCC(=O)O)C(=O)O)C(C)C [Compound A100]	>69	> 200	> 1	> 1	–	120 ± 39	–	–	–	–
CC(C)C[C@H](NC(=O)[C@H](Cc1c[nH]c2ccccc12)NC(=O)[C@H](CCCCN)NC(=O)[C@@H](NC(=O)[C@H](Cc1ccccc1)NC(=O)[C@H](CCC(=O)O)NC(=O)[C@H](CCC(N)=O)NC(=O)[C@H](C)NC(=O)[C@H](CCCNC(=N)N)NC(=O)[C@H](CCCCN)NC(=O)C(C)(C)NC(=O)[C@H](CC(=O)O)NC(=O)[C@H](CC(C)C)NC(=O)[C@H](Cc1c[nH]c2ccccc12)NC(=O)[C@H](CCCCN)NC(=O)[C@H](CO)NC(=O)[C@H](Cc1ccc(O)cc1)NC(=O)[C@H](CC(=O)O)NC(=O)[C@H](CO)NC(=O)[C@@H](NC(=O)[C@H](Cc1ccccc1)NC(=O)[C@@H](NC(=O)CNC(=O)[C@H](Cc1c[nH]cn1)NC(=O)[C@H](CO)NC(=O)[C@@H](N)Cc1ccc(O)cc1)[C@@H](C)O)[C@@H](C)O)C(C)C)C(=O)N[C@@H](CCC(=O)O)C(=O)N[C@@H](CC(=O)O)C(=O)N[C@@H](CCC(=O)O)C(=O)O [Compound A102] (H-YSHGTFTSDYSKWLD[Aib]KRAQEFVKWLEDE-OH; N-terminus assumed)	>51	> 200	> 1	> 1	–	97.2 ± 6.3	–	–	–	–
CC(C)C[C@H](NC(=O)[C@H](Cc1ccc(O)cc1)NC(=O)[C@H](CCCCN)NC(=O)[C@H](CO)NC(=O)[C@H](Cc1ccc(O)cc1)NC(=O)[C@H](CC(=O)O)NC(=O)[C@H](CO)NC(=O)[C@@H](NC(=O)[C@H](Cc1ccccc1)NC(=O)[C@@H](NC(=O)CNC(=O)[C@H](Cc1c[nH]cn1)NC(=O)[C@H](CO)NC(=O)[C@@H](N)Cc1ccc(O)cc1)[C@@H](C)O)[C@@H](C)O)C(=O)N[C@@H](CC(=O)O)C(=O)N[C@@H](CCCCNC(=O)COCCOCCNC(=O)COCCOCCNC(=O)CC[C@H](NC(=O)CCCCCCCCCCCCCCCCC(=O)O)C(=O)O)C(=O)N[C@@H](CCCCN)C(=O)N[C@@H](CO)C(=O)N[C@@H](C)C(=O)N[C@@H](CCC(N)=O)C(=O)N[C@@H](CCC(=O)O)C(=O)N[C@@H](Cc1ccccc1)C(=O)N[C@H](C(=O)NC(C)(C)C(=O)N[C@@H](Cc1c[nH]c2ccccc12)C(=O)N[C@@H](CC(C)C)C(=O)N[C@@H](CCC(=O)O)C(=O)N[C@@H](CC(=O)O)C(=O)N[C@@H](CCC(=O)O)C(=O)N1CCC[C@H]1C(=O)N[C@@H](CO)C(=O)N[C@@H](CO)C(=O)NCC(=O)N[C@@H](C)C(=O)N1CCC[C@H]1C(=O)N1CCC[C@H]1C(=O)N1CCC[C@H]1C(=O)N[C@@H](CO)C(=O)O)C(C)C [Compound B15]	–	–	–	–	–	–	> 1000	0.126	0.457	560
CCCCCCCCCCCCCCCC(=O)N[C@@H](CCC(=O)NCCCC[C@H](NC(=O)[C@H](CO)NC(=O)[C@H](CCCCN)NC(=O)[C@@H]1CCCN1C(=O)[C@H](CCC(=O)O)NC(=O)[C@H](CC(=O)O)NC(=O)[C@H](CCC(=O)O)NC(=O)[C@H](CC(C)C)NC(=O)[C@H](Cc1c[nH]c2ccccc12)NC(=O)[C@H](CCCCN)NC(=O)[C@@H](NC(=O)[C@H](Cc1ccccc1)NC(=O)[C@H](CCC(=O)O)NC(=O)[C@H](CCC(N)=O)NC(=O)[C@H](C)NC(=O)[C@H](CCCNC(=N)N)NC(=O)[C@H](C)NC(=O)[C@H](C)NC(=O)[C@H](CC(=O)O)NC(=O)[C@H](CC(C)C)NC(=O)[C@H](Cc1ccc(O)cc1)NC(=O)[C@H](CCCCN)NC(=O)[C@H](CO)NC(=O)[C@H](Cc1ccc(O)cc1)NC(=O)[C@H](CC(=O)O)NC(=O)[C@H](CO)NC(=O)[C@@H](NC(=O)[C@H](Cc1ccccc1)NC(=O)[C@@H](NC(=O)CNC(=O)[C@H](CCC(N)=O)NC(=O)[C@H](CO)NC(=O)[C@@H](N)Cc1ccc(O)cc1)[C@@H](C)O)[C@@H](C)O)C(C)C)C(=O)N[C@@H](CO)C(=O)N1CCC[C@H]1C(=O)N1CCC[C@H]1C(=O)N1CCC[C@H]1C(=O)N[C@@H](CO)C(N)=O)C(=O)O [Compound B33] (H-YSQGTFTSDYSKYLDAARAQEFVKWLEDEPKSK([γGlu-Palmitoyl])SPPPS-NH2)	–	–	–	–	–	–	> 1000	0.0251	6.96	25.7
CCCCCCCCCCCCCCCC(=O)N[C@@H](CCC(=O)NCCCC[C@H](NC(=O)[C@H](CO)NC(=O)[C@H](CO)NC(=O)[C@@H]1CCCN1C(=O)[C@H](CCC(=O)O)NC(=O)[C@H](CC(=O)O)NC(=O)[C@H](CCC(=O)O)NC(=O)[C@H](CC(C)C)NC(=O)[C@H](Cc1c[nH]c2ccccc12)NC(=O)[C@H](CCCCN)NC(=O)[C@@H](NC(=O)[C@H](Cc1ccccc1)NC(=O)[C@H](CCC(=O)O)NC(=O)[C@H](CCC(N)=O)NC(=O)[C@H](C)NC(=O)[C@H](CCCNC(=N)N)NC(=O)[C@H](C)NC(=O)[C@H](CO)NC(=O)[C@H](CC(=O)O)NC(=O)[C@H](CC(C)C)NC(=O)[C@H](Cc1ccc(O)cc1)NC(=O)[C@H](CCCCN)NC(=O)[C@H](CO)NC(=O)[C@H](Cc1ccc(O)cc1)NC(=O)[C@H](CC(=O)O)NC(=O)[C@H](CO)NC(=O)[C@@H](NC(=O)[C@H](Cc1ccccc1)NC(=O)[C@@H](NC(=O)CNC(=O)[C@H](Cc1c[nH]cn1)NC(=O)[C@H](CO)NC(=O)[C@@H](N)Cc1ccc(O)cc1)[C@@H](C)O)[C@@H](C)O)C(C)C)C(=O)N[C@@H](C)C(=O)N1CCC[C@H]1C(=O)N1CCC[C@H]1C(=O)N1CCC[C@H]1C(=O)N[C@@H](CO)C(N)=O)C(=O)O [Compound B41] (H-YSHGTFTSDYSKYLDSARAQEFVKWLEDEPSSK([γGlu-Palmitoyl])APPPS-NH2)	–	–	–	–	–	–	> 1000	0.0251	4.86	65.4
